Data: patent US20120309676A1, “Lantibiotic Salts” (priority 2010, published 2012)
Counter-ions that a name gives are not always drawn.

Key:
[1] = tested on: Methicillin Resistant Staphylococcus aureus (MRSA, ATCC 33591); experiment: Neutropaenic mouse thigh infection model; assay type: in vivo
Experimental: In vivo efficacy of compounds of the present invention in the treatment of bacterial tissue infections was evaluated using a neutropaenic mouse thigh model.
Groups of 6 male ICR mice weighing 24±2 g were used. Test animals were immunosuppressed by 2 intraperitoneal injections of cyclophosphamide, the first at 150 mg/Kg 4 days before infection (day-4) and the second at 100 mg/Kg 1 day before infection (day-1). On day 0, individual animals were inoculated intramuscularly (IM) into the right thigh of test animals with 1.15×10^8 CFU/mouse of Methicillin Resistant Staphylococcus aureus (MRSA, ATCC 33591) suspended in 100 μL of sterile PBS, pH 7.4. Vehicle and test substances were administered intravenously (IV) at a dose volume of 6 mL/Kg, 2 and 14 hours after thigh infection. Example 1 and vancomycin were dissolved in 15% hydroxypropyl-β-cyclodextrin/4.4% glucose/1.5 mM potassium phosphate buffer, pH 7.0 and administered at doses of 5, 10, 20, 30 and 40 mg/Kg. At 26 hours after inoculation, muscle of the right thigh of each test mouse was harvested. From an additional group with no treatment, muscle of the right thigh was harvested at 2 hours after inoculation for the basal CFU determination. The removed muscle tissues were then homogenized in 3-4 mL of PBS, pH 7.4 with a ceramic mortar. Homogenates of 0.1 mL were used for serial 10-fold dilutions and plated on Mueller Hinton broth in 1.5% Bacto agar for CFU determination. […] Results (mean cfu/g) are graphically represented in FIG. 2.

MRSA = experiment: MIC susceptibility testing, MRSA; assay type: cell-based, Staphylococcus aureus
Experimental: (§1) Susceptibility testing with the exception of Streptococcus pneumoniae was performed by two-fold serial dilutions in Mueller Hinton Broth supplemented with 50 μg/mL Ca^2+. Susceptibility testing of S. pneumoniae was performed by two-fold serial dilutions in Brain-Heart-Infusion Broth supplemented with 50 μg/mL Ca^2+.
(§2) Modal values from up to 6 determinations

Streptococcus pneumoniae = experiment: MIC susceptibility testing, S. pneumoniae (Brain-Heart-Infusion Broth); assay type: cell-based; settings: S. pneumoniae R33
Experimental: as §1, §2

[2] = tested on: Vancomycin resistant enterococci, E. faecium; experiment: MIC susceptibility testing, vancomycin resistant enterococci (E. faecium); assay type: cell-based
Experimental: as §1, §2

[3] = tested on: Staphylococcus aureus methicillin resistant ATCC 33591; experiment: Mouse bacteraemia model, second experiment, IV dosing; assay type: in vivo; settings: for number of deaths: after 7 days, groups of 6 mice
Experimental: In a second experiment Groups of 6 male CD-1 (Crl.) derived mice weighing 24±2 g were used. Mice were inoculated intraperitoneally (IP) with an LD90-100 of Staphylococcus aureus methicillin resistant ATCC 33591 (1.35×10^8 CFU/mouse) in 0.5 mL of BHI broth containing 5% mucin. Example 1 was dissolved in 5% dextrose/1.5 mM potassium phosphate, pH 5.0 and doses of 1, 3, 5 and 10 mg/Kg were administered intravenously (IV) to test animals at 1 and 13 hour(s) after bacteria challenge. The dosing volume was 5 mL/Kg. Mortality was recorded once daily for 7 days.

MSSA = experiment: MIC susceptibility testing, MSSA; assay type: cell-based, Staphylococcus aureus
Experimental: as §1, §2

CC[C@H](C)[C@@H]1NC(=O)[C@@H]2NC(=O)[C@H](CC(C)C)NC(=O)[C@H](NC(=O)[C@@H]3CSC[C@@H](N)C(=O)N[C@@H](CO)C(=O)NCC(=O)N[C@@H](Cc4c[nH]c5ccccc45)C(=O)N[C@@H](C(C)C)C(=O)N3)[C@H](C)SC[C@H](NC(=O)[C@H](CCC(=O)O)NC1=O)C(=O)NCC(=O)N[C@H]1C(=O)N[C@@H](CC(C)C)C(=O)N[C@@H](C(C)C)C(=O)N[C@@H](CS[C@H]2C)C(=O)N[C@@H](C)C(=O)N[C@H](C(=O)NCc2cc(Cl)cc(Cl)c2)CS[C@H]1C [Example 1, Deoxyactagardine B (3,5-dichlorobenzylamine) monocarboxamide N-methyl glucamine salt]
antimicrobial effect ([1]; IV at 5, 10, 20, 30 and 40 mg/Kg×2, 2 and 14 h after thigh infection, harvest at 26 h): significant antimicrobial effect
reduction in CFU/g ([1]; at 10 mg/kg and above, IV ×2, thigh muscle at 26 h): > 1000 fold
MIC (MRSA; S. aureus 12232): 4 µg/mL
MIC (MRSA; S. aureus R31): 4 µg/mL
MIC (MRSA; S. aureus R33): 4 µg/mL
MIC (MRSA; S. aureus R34): 4 µg/mL
MIC (MRSA; S. aureus R36): 4 µg/mL
MIC (MRSA; S. aureus R37): 4 µg/mL
MIC (MRSA; S. aureus R39): 4 to 8 µg/mL
MIC (MRSA; S. aureus R40): 4 to 8 µg/mL
MIC (MRSA; S. aureus W71): 8 µg/mL
MIC (MRSA; S. aureus W74): 4 µg/mL
MIC (MRSA; S. aureus W82): 4 to 8 µg/mL
MIC (MRSA; S. aureus W96): 4 to 8 µg/mL
MIC (MRSA; S. aureus W97): 4 µg/mL
MIC (MRSA; S. aureus W98): 4 to 8 µg/mL
MIC (MRSA; S. aureus W99): 4 to 8 µg/mL
MIC (Streptococcus pneumoniae): <16 µg/mL
MIC ([2]; E. faecium 7634337): 16 µg/mL
MIC ([2]; E. faecium 7662769): <16 µg/mL
MIC ([2]; E. faecium 7860190): 4 to 8 µg/mL
MIC ([2]; E. faecium 7865532): 16 µg/mL
MIC ([2]; E. faecium 9704998): 8 µg/mL
MIC ([2]; E. faecium 9709024): <16 µg/mL
MIC ([2]; E. faecium 9710577): 16 µg/mL
number of deaths ([3]; 1 mg/kg IV at 1 and 13 h after challenge): 5
number of deaths ([3]; 3 mg/kg IV at 1 and 13 h after challenge): 4
number of deaths ([3]; 5 mg/kg IV at 1 and 13 h after challenge): 1
number of deaths ([3]; 10 mg/kg IV at 1 and 13 h after challenge): 1
survival of mice after 7 days ([3]; 1, 3, 5 and 10 mg/kg): dose-dependent incease in survival
MIC (MSSA; S. aureus 8325-4): 4 µg/mL
MIC (MSSA; S. aureus G12): 4 µg/mL
MIC (MSSA; S. aureus G15): 4 µg/mL
MIC (MSSA; S. aureus G20): 4 µg/mL
MIC (MSSA; S. aureus G22): 4 µg/mL
MIC (MSSA; S. aureus G23): 4 µg/mL
MIC (MSSA; S. aureus G26): 4 µg/mL
MIC (MSSA; S. aureus G28): 4 µg/mL
MIC (MSSA; S. aureus G29): 4 µg/mL
MIC (MSSA; S. aureus G30): 4 µg/mL
MIC (MSSA; S. aureus G31): 4 µg/mL
MIC (MSSA; S. aureus G32): 4 µg/mL
MIC (MSSA; S. aureus G33): 4 µg/mL
MIC (MSSA; S. aureus G35): 4 µg/mL
MIC (MSSA; S. aureus SH1000): 4 to 8 µg/mL
